Read-outs that look alike come from different tables or passages of the source.
What was measured:
RAW264.7 macrophages = assay: Cytotoxicity in RAW264.7 macrophages (mammalian host cells); type: cell-based; conditions: host cell cytotoxicity, read-out: RAW 264.7 IC50
Procedure: [The procedure below names another organism; the source lists this organism under the same test.] To biologically characterize the isolated triterpenoids for their trypanocidal activities, their cytotoxicities in RAW264.7 macrophages (mammalian host cells) and T. cruzi epimastigotes were analyzed.
To assess the selectivities of the isolated compounds, their trypanocidal activities against the epimastigotes were assessed by the Cell Proliferation Kit II (XTT) assay, as previously described.[11] Briefly, 1.5 × 10^5 epimastigotes were seeded per well in 96-well plates. […] In all the experiments, benznidazole was used as the positive control. Following the incubation period, the plates were examined under a microscope for sterility and growth of controls. To the plates, 50 μL of XTT and PMS (Phenazine methosulfate, Sigma-Aldrich, MO, USA) solution (XTT and PMS at 0.5 and 0.025 mg/mL, respectively) was added, and the plates were then incubated at 28 °C for 2.5 h. The parasites were fixed by the addition of 50 μL of MeOH for 15 min before the absorbance was measured at 490 nm on a Tecan plate reader. Results were expressed as percentage cell viability relative to vehicle control or IC50 values calculated by GraphPad Prism version 8.0. All assessments were performed in triplicate in at least two independent experiments.

[1] = tested on: T. cruzi epimastigotes (Y strain); assay: Trypanocidal activity against T. cruzi epimastigotes, Cell Proliferation Kit II (XTT) assay; type: cell-based, Trypanosoma cruzi; conditions: for Selectivity Index: T. cruzi epimastigotes over the host cell (RAW264.7 macrophages); for Increase of the proliferation of the epimastigotes: at the lower micromolar concentrations, trypanocidal at higher concentrations; for IC50: epimastigotes, Y strain, 72 h at 28 °C, XTT, read-out: T. cruzi epimastigote WT-Y IC50; for Effect on T. cruzi epimastigote proliferation (Figure S130): mean ± SD of three independent experiments each in triplicates
Procedure: Epimastigotes of T. cruzi [Y strain (ATCC 50832)] were maintained in weekly passages in a liver infusion tryptose (LIT) medium supplemented with 10% heat-inactivated fetal bovine serum (hiFBS) at 28 °C, as described previously.[33] The epimastigote cultures in the logarithmic-growth phase (1–5 × 10^7 parasites/mL) were used for the experiments unless stated otherwise. The green fluorescent protein (GFP)-overexpressing epimastigotes were generated by transfection using pTREX-n-eGFP, a gift from Rick Tarleton (Addgene plasmid # 62544; http://n2t.net/addgene:62544;RRID:Addgene_62544), as described previously. The GFP-expressing epimastigotes were cultured in LIT medium supplemented with 10% hiFBS and 500 μg/mL G418.
To assess the selectivities of the isolated compounds, their trypanocidal activities against the epimastigotes were assessed by the Cell Proliferation Kit II (XTT) assay, as previously described.[11] Briefly, 1.5 × 10^5 epimastigotes were seeded per well in 96-well plates. The compounds were added at a single concentration, 10 μM (for the initial screening experiments) or six concentrations ranging from 10–0.3 μM for 72 h at 28 °C. In all the experiments, benznidazole was used as the positive control. Following the incubation period, the plates were examined under a microscope for sterility and growth of controls. To the plates, 50 μL of XTT and PMS (Phenazine methosulfate, Sigma-Aldrich, MO, USA) solution (XTT and PMS at 0.5 and 0.025 mg/mL, respectively) was added, and the plates were then incubated at 28 °C for 2.5 h. The parasites were fixed by the addition of 50 μL of MeOH for 15 min before the absorbance was measured at 490 nm on a Tecan plate reader. Results were expressed as percentage cell viability relative to vehicle control or IC50 values calculated by GraphPad Prism version 8.0. All assessments were performed in triplicate in at least two independent experiments.

[2] = tested on: T. cruzi amastigotes in infected RAW264.7 cells; assay: Amastigote replication in host cells: FACS quantitation of GFP parasites released from infected RAW264.7 cells; type: cell-based, Trypanosoma cruzi; conditions: GFPY parasite release from infected RAW264.7 cells, FACS after 6 days, mean ± SD of three independent experiments
Procedure: Figure 3 Inhibition activity of 1 against amastigote replication in the host cells. […] (A) Representative brightfield microscopic image of CCL39 fibroblasts infected with Trypanosoma cruzi with amastigotes (arrow). […] (C) Inhibition curves of compound 1 and the positive control, benznidazole, of the GFPY parasite release from the infected RAW264.7 cells were measured by fluorescence-activated cell sorting (FACS) after 6 days.
Fluorescence-activated cell sorting (FACS)-based quantitation of released parasites from infected RAW264.7 cells: The host cells were seeded in 24-well plates at densities of 40,000 and 10,000 cells/mL. The cells were allowed to adhere for 24 h, after which they were infected with trypomastigotes that were harvested by the swim-out procedure described above at a multiplicity of 10. On the next day, the noninternalized trypomastigotes were washed off, and fresh RPMI with 2% fetal bovine serum was added to the wells along with the test substance. In all of the experiments, the screening was performed in triplicate, including tests with DMSO and benznidazole controls. The released parasites were fixed using 4% paraformaldehyde in phosphate-buffered saline for 1 h, after which the samples were analyzed by FACS (BD Biosciences), as described previously.[11]

[3] = Trypanosoma cruzi, RAW264.7, 144 h

Row | Molecule | IC50 (RAW264.7 macrophages) [µM] | Selectivity Index [1] | Increase of the proliferation of the epimastigotes [1] | IC50 [1] [µM] | Effect on T. cruzi epimastigote proliferation (Figure S130) [1] | IC50 (RAW264.7 macrophages; Mus musculus) [µM] | IC50 ([2]; listed as desmondiin A) [µM] | IC50 [2, 3] [µM] | IC50 ([1]; Trypanosoma cruzi) [µM] | IC50 [2] [µM]
1 | 3β-hydroxy-27-nor-tirucalla-8-en-7,11,25-trione [Compound 12] | 24.4 | 6.6 | 15–30% | 3.7 | significant increase |  |  |  |  | 
2 | C[C@H](C/C=C/C(C)(C)OO)[C@@H]1CC[C@]2(C)C3=C(CC[C@@]12C)[C@@]1(C)CC[C@H](O)C(C)(C)[C@@H]1CC3=O [Compound 1, (23E)-25-hydroperoxyeupha-8,23-diene-3β-ol-7-one] |  | 8.5 |  |  |  | 38.1 | 2.4 ± 0.3 | 2.5 ± 0.3 | 4.5 | 
3 | CC(C)C(=O)CC[C@@H](C)[C@@H]1CC[C@]2(C)C3=C(CC[C@@]12C)[C@@]1(C)CC[C@H](O)C(C)(C)[C@@H]1CC3=O [Compound 2, eupha-8-ene-3β-ol-7,24-dione] |  | 6.3 |  |  | significant increase | 31.5 |  |  | 5 | 
4 | CC(=O)CCC[C@H](C)[C@@H]1CC[C@]2(C)C3=C(CC[C@@]12C)[C@@]1(C)CC[C@H](O)C(C)(C)[C@@H]1CC3=O [Compound 3, Desmondiin D] |  | 7.8 |  |  |  | 31 |  |  | 4 | 
5 | C[C@@H](C/C=C/C(C)(C)OO)[C@@H]1CC[C@]2(C)C3=C(C(OO)C[C@@]12C)[C@@]1(C)CC[C@H](O)C(C)(C)[C@@H]1CC3=O (stereo partly drawn) [Compound 5, (23E)-11,25-dihydroperoxytirucalla-8,23-dien-3β-ol-7-one] |  | 5.4 | 15–30% |  | significant increase | 18.4 |  |  | 3.4 | 
6 | C/C(C=O)=C\CC[C@H](C)[C@@H]1CC[C@]2(C)C3=C([C@@H](O)C[C@@]12C)[C@@]1(C)CC[C@H](O)C(C)(C)[C@@H]1CC3=O [Compound 7, Desmondiin H] |  | 6.4 |  |  |  | 23.5 |  |  | 3.7 | 
7 | CC(C)=CCC[C@@H](C)[C@@H]1CC[C@]2(C)C3=C(C(=O)C[C@@]12C)[C@@]1(C)CC[C@H](O)C(C)(C)[C@@H]1C[C@H]3O [Compound 8, eupha-8,24-dien-3β,7α-diol-11-one] |  | 5.8 | 15–30% |  | significant increase | 28.4 |  |  | 4.9 | 
8 | O=C(Cn1ccnc1[N+](=O)[O-])NCc1ccccc1 [benznidazole, reference compound] |  |  |  |  |  |  |  | 3.6 ± 0.4 |  | 3.2 ± 0.5
